From PubChem BioAssay AID1963975 (Molecular Pharmacology Branch, DTP, NCI, 2024)

Tested on: 624824-186-R-J2-PDC multicell spheroids, viability
Test: Anticancer human tumor 624824-186-R-J2-PDC patient-derived colon adenocarcinoma cell line growth inhibition [PI3K]
Settings: for IC50: curve of first compound; for viability, T/C: stronger effect = lower value
How it was run: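 Targeted small molecules plus PI3K inhibitors, half-log dose series from Cmax (default top 10 microM), were applied to heterotypic spheroids of cancer cells with HUVEC and MSCs. Viability indicated growth inhibition.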

[1] = second compound 0.00316 µM, first compound 0.0316 µM
[2] = second compound 0.00316 µM, first compound 0.1 µM
[3] = second compound 0.00316 µM, first compound 0.316 µM
[4] = second compound 0.00316 µM, first compound 1 µM
[5] = second compound 0.00316 µM, first compound 3.16 µM
[6] = second compound 0.00316 µM, first compound 10 µM
[7] = second compound 0.01 µM, first compound 0.0316 µM
[8] = second compound 0.01 µM, first compound 0.1 µM
[9] = second compound 0.01 µM, first compound 0.316 µM
[10] = second compound 0.01 µM, first compound 1 µM
[11] = second compound 0.01 µM, first compound 3.16 µM
[12] = second compound 0.01 µM, first compound 10 µM
[13] = second compound 0.0316 µM, first compound 0.0316 µM
[14] = second compound 0.0316 µM, first compound 0.1 µM
[15] = second compound 0.0316 µM, first compound 0.316 µM
[16] = second compound 0.0316 µM, first compound 1 µM
[17] = second compound 0.0316 µM, first compound 3.16 µM
[18] = second compound 0.0316 µM, first compound 10 µM
[19] = second compound 0.1 µM, first compound 0.0316 µM
[20] = second compound 0.1 µM, first compound 0.1 µM
[21] = second compound 0.1 µM, first compound 0.316 µM
[22] = second compound 0.1 µM, first compound 1 µM
[23] = second compound 0.1 µM, first compound 3.16 µM
[24] = second compound 0.1 µM, first compound 10 µM
[25] = second compound 0.316 µM, first compound 0.0316 µM
[26] = second compound 0.316 µM, first compound 0.1 µM
[27] = second compound 0.316 µM, first compound 0.316 µM
[28] = second compound 0.316 µM, first compound 1 µM
[29] = second compound 0.316 µM, first compound 3.16 µM
[30] = second compound 0.316 µM, first compound 10 µM
[31] = second compound 1 µM, first compound 0.0316 µM
[32] = second compound 1 µM, first compound 0.1 µM
[33] = second compound 1 µM, first compound 0.316 µM
[34] = second compound 1 µM, first compound 1 µM
[35] = second compound 1 µM, first compound 3.16 µM
[36] = second compound 1 µM, first compound 10 µM
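Note: spheroids exposed to agents for 7 days before viability read.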
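Throughout, for viability, T/C: 100% = DMSO vehicle treated spheroids.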

With `C#Cc1c(F)ccc2cc(O)cc(-c3ncc4c(N5CC6CCC(C5)N6)nc(OCC56CCCN5CC(F)C6)nc4c3F)c12` (stereo not drawn) + COc1c(OCCCN2CCOCC2)ccc2c3n(c(=NC(=O)c4cnc(N)nc4)nc12)CCN3 the IC50 (second compound 0.00316 µM) was > 10 µM, the IC50 (second compound 0.01 µM) was > 10 µM and the IC50 (second compound 0.0316 µM) was > 10 µM. For the same compound, the IC50 (second compound 0.1 µM) was > 10 µM, the IC50 (second compound 0.316 µM) was > 10 µM and the IC50 (second compound 1 µM) was 6.78 µM. It also gave a viability, T/C [1] of 89.2%, a viability, T/C [2] of 101% and a viability, T/C [3] of 73.6%. For the same compound, the viability, T/C [4] was 91.6%, the viability, T/C [5] was 87.9% and the viability, T/C [6] was 80.8%. The viability, T/C [7] was 92.8%, the viability, T/C [8] was 90.2% and the viability, T/C [9] was 89.8%. For the same compound, the viability, T/C [10] was 78.5%, the viability, T/C [11] was 89.9% and the viability, T/C [12] was 95.4%. For the same compound, the viability, T/C [13] was 94.3%, the viability, T/C [14] was 77.2% and the viability, T/C [15] was 92.6%. The viability, T/C [16] was 77.5%, the viability, T/C [17] was 80.6% and the viability, T/C [18] was 81.5%. It also gave a viability, T/C [19] of 78.8%, a viability, T/C [20] of 76.9% and a viability, T/C [21] of 66.2%. For the same compound, the viability, T/C [22] was 68.3%, the viability, T/C [23] was 72.8% and the viability, T/C [24] was 72.2%. For the same compound, the viability, T/C [25] was 72.6%, the viability, T/C [26] was 59.4% and the viability, T/C [27] was 65%. It also gave a viability, T/C [28] of 60.4%, a viability, T/C [29] of 58.5% and a viability, T/C [30] of 56.4%. For the same compound, the viability, T/C [31] was 60.1%, the viability, T/C [32] was 59.9% and the viability, T/C [33] was 52.9%. It also gave a viability, T/C [34] of 56%, a viability, T/C [35] of 50.8% and a viability, T/C [36] of 49.3%.

For `C=CC(=O)N1CCN(c2nc(=O)n(-c3c(C)ccnc3C(C)C)c3nc(-c4c(O)cccc4F)c(F)cc23)C(C)C1` (stereo not drawn) + COc1c(OCCCN2CCOCC2)ccc2c3n(c(=NC(=O)c4cnc(N)nc4)nc12)CCN3, the IC50 (second compound 0.00316 µM) was > 10 µM, the IC50 (second compound 0.01 µM) was > 10 µM and the IC50 (second compound 0.0316 µM) was > 10 µM. For the same compound, the IC50 (second compound 0.1 µM) was > 10 µM, the IC50 (second compound 0.316 µM) was > 10 µM and the IC50 (second compound 1 µM) was > 10 µM. For the same compound, the viability, T/C [1] was 96.5%, the viability, T/C [2] was 109% and the viability, T/C [3] was 95.6%. For the same compound, the viability, T/C [4] was 77.9%, the viability, T/C [5] was 88.7% and the viability, T/C [6] was 80.8%. The viability, T/C [7] was 102%, the viability, T/C [8] was 98.4% and the viability, T/C [9] was 101%. The viability, T/C [10] was 75.3%, the viability, T/C [11] was 93% and the viability, T/C [12] was 88.4%. For the same compound, the viability, T/C [13] was 88.4%, the viability, T/C [14] was 86.5% and the viability, T/C [15] was 97.3%. For the same compound, the viability, T/C [16] was 75.1%, the viability, T/C [17] was 89.5% and the viability, T/C [18] was 81.7%. The viability, T/C [19] was 80.4%, the viability, T/C [20] was 61.1% and the viability, T/C [21] was 80.1%. It also gave a viability, T/C [22] of 67.9%, a viability, T/C [23] of 69% and a viability, T/C [24] of 69%. The viability, T/C [25] was 62.6%, the viability, T/C [26] was 59.3% and the viability, T/C [27] was 59.5%. The viability, T/C [28] was 61.6%, the viability, T/C [29] was 69.8% and the viability, T/C [30] was 61%. It also gave a viability, T/C [31] of 59.1%, a viability, T/C [32] of 53% and a viability, T/C [33] of 65.5%. The viability, T/C [34] was 58.1%, the viability, T/C [35] was 64.5% and the viability, T/C [36] was 60.5%.

In the case of `CC(Cn1ccc(-c2ccc(C#N)c(Cl)c2)n1)NC(=O)c1cc(C(C)O)[nH]n1` (stereo not drawn) + COc1c(OCCCN2CCOCC2)ccc2c3n(c(=NC(=O)c4cnc(N)nc4)nc12)CCN3, the IC50 (second compound 0.00316 µM) is reported as > 10 µM, the IC50 (second compound 0.01 µM) is reported as > 10 µM and the IC50 (second compound 0.0316 µM) is reported as > 10 µM. For the same compound, the IC50 (second compound 0.1 µM) was > 10 µM, the IC50 (second compound 0.316 µM) was > 10 µM and the IC50 (second compound 1 µM) was > 10 µM. The viability, T/C [1] was 86.3%, the viability, T/C [2] was 79% and the viability, T/C [3] was 106%. The viability, T/C [4] was 98.5%, the viability, T/C [5] was 71.5% and the viability, T/C [6] was 117%. It also gave a viability, T/C [7] of 87.1%, a viability, T/C [8] of 89.7% and a viability, T/C [9] of 98%. For the same compound, the viability, T/C [10] was 84.8%, the viability, T/C [11] was 99.6% and the viability, T/C [12] was 114%. It also gave a viability, T/C [13] of 102%, a viability, T/C [14] of 88.1% and a viability, T/C [15] of 90.7%. The viability, T/C [16] was 84.5%, the viability, T/C [17] was 92% and the viability, T/C [18] was 97.2%. The viability, T/C [19] was 76.9%, the viability, T/C [20] was 73.2% and the viability, T/C [21] was 71.6%. It also gave a viability, T/C [22] of 76.6%, a viability, T/C [23] of 85.1% and a viability, T/C [24] of 80%. It also gave a viability, T/C [25] of 61.4%, a viability, T/C [26] of 70.2% and a viability, T/C [27] of 55.3%. The viability, T/C [28] was 62.2%, the viability, T/C [29] was 68.1% and the viability, T/C [30] was 63.8%. The viability, T/C [31] was 63%, the viability, T/C [32] was 58.6% and the viability, T/C [33] was 62.7%. For the same compound, the viability, T/C [34] was 63.6%, the viability, T/C [35] was 63.4% and the viability, T/C [36] was 59%.

`CC1(C)CCC(Nc2ncc(C(F)(F)F)c(-c3c[nH]c4c(P(C)(C)=O)c(C#N)ccc34)n2)CN1` (stereo not drawn) + COc1c(OCCCN2CCOCC2)ccc2c3n(c(=NC(=O)c4cnc(N)nc4)nc12)CCN3 showed an IC50 (second compound 0.00316 µM) of 3.5 µM, an IC50 (second compound 0.01 µM) of 3.48 µM and an IC50 (second compound 0.0316 µM) of 2.23 µM. The IC50 (second compound 0.1 µM) was 1.45 µM, the IC50 (second compound 0.316 µM) was 0.28 µM and the IC50 (second compound 1 µM) was < 0.0316 µM. For the same compound, the viability, T/C [1] was 78.3%, the viability, T/C [2] was 104% and the viability, T/C [3] was 92.2%. The viability, T/C [4] was 89.3%, the viability, T/C [5] was 54.4% and the viability, T/C [6] was 4.77%. For the same compound, the viability, T/C [7] was 73.5%, the viability, T/C [8] was 76.8% and the viability, T/C [9] was 94.8%. It also gave a viability, T/C [10] of 83.1%, a viability, T/C [11] of 54.2% and a viability, T/C [12] of 4.78%. It also gave a viability, T/C [13] of 82.5%, a viability, T/C [14] of 75.9% and a viability, T/C [15] of 71.5%. It also gave a viability, T/C [16] of 61.7%, a viability, T/C [17] of 46.9% and a viability, T/C [18] of 3.67%. It also gave a viability, T/C [19] of 63.6%, a viability, T/C [20] of 56.9% and a viability, T/C [21] of 55.1%. The viability, T/C [22] was 49.1%, the viability, T/C [23] was 45.6% and the viability, T/C [24] was 4.59%. The viability, T/C [25] was 54%, the viability, T/C [26] was 51.7% and the viability, T/C [27] was 47.9%. It also gave a viability, T/C [28] of 43.8%, a viability, T/C [29] of 35.4% and a viability, T/C [30] of 2.98%. It also gave a viability, T/C [31] of 43%, a viability, T/C [32] of 44.8% and a viability, T/C [33] of 42.7%. It also gave a viability, T/C [34] of 37.2%, a viability, T/C [35] of 32.5% and a viability, T/C [36] of 2.59%.
